Test results from patent US20240092791A1, “DIHYDROFUROPYRIDINE DERIVATIVES AS RHO-KINASE INHIBITORS” (CHIESI FARMACEUTICI S.P.A., priority 2020, published 2024).

What was measured:
PKA = PKA (Homo sapiens, UniProt P17612); experiment: In vitro inhibitory activity assay for PKA (ADP-Glo), reported as selectivity ratio vs ROCK2; type: biochemical; conditions: Ki value for PKA divided by Ki value of ROCK2
Description: The effectiveness of compounds of the present invention to inhibit PKA activity can be determined in a 10 μl assay containing 40 mM Tris pH7.5, 20 mM MgCl2 0.1 mg/ml BSA, 50 μM DTT and 260 μM peptide substrate (kemptide) using an ADP-Glo kit (Promega). Compounds were dissolved in DMSO such that the final concentration of DMSO was 1% in the assay. All reactions/incubations are performed at 25° C. Compound and PKA enzyme (6 μl) were mixed and incubated for 30 mins. Reactions were initiated by addition of ATP (4 μl ) such that the final concentration of ATP in the assay was 10 μM. After a 30 minute incubation 10 μl of ADP-Glo Reagent was added and after a further 1 hour incubation 20 μl of Kinase Detection Buffer was added and the mixture incubated for a further 45 minutes. The luminescent signal was measured on a luminometer. […] Compounds were tested in dose-response format and the inhibition of kinase activity was calculated at each concentration of compound. To determine the IC50 (concentration of compound required to inhibit 50% of the enzyme activity) data were fit to a plot of % inhibition vs Logio compound concentration using a sigmoidal fit with a variable slope and fixing the maximum to 100% and the minimum to 0%. To determine the Ki values the Cheng-Prusoff equation was utilized (Ki=IC50/(1+[S]/Km).
In vitro inhibitory activities for PKA were reported as selectivity ratio vs. ROCK-2.

Rho kinase 2 (ROCK2) = Rho kinase 2 (ROCK2) (Homo sapiens, UniProt O75116); experiment: In vitro inhibitory activity assay ROCK2 (ADP-Glo); type: biochemical; conditions: ATP 200 μM, Cheng-Prusoff from IC50; read-out: ROCK2 (Ki, range of activity)
Description: (§1) The effectiveness of compounds of the present invention to inhibit Rho kinase activity can be determined in a 10 μl assay containing 40 mM Tris pH7.5, 20 mM MgCl2 0.1 mg/mL BSA, 50 μM DTT and 2.5 μM peptide substrate (Myelin Basic Protein) using an ADP-Glo kit (Promega). Compounds were dissolved in DMSO such that the final concentration of DMSO was 1% in the assay. All reactions/incubations are performed at 25° C. Compound (2 ul) and either Rho kinase 1 or 2 (4 μl) were mixed and incubated for 30 mins. Reactions were initiated by addition of ATP (4μ1) such that the final concentration of ATP in the assay was 200 μM. After a 1 hour incubation 10 μl of ADP-Glo Reagent was added and after a further 1 hour incubation 20 ul of Kinase Detection Buffer was added and the mixture incubated for a further 45 minutes. The luminescent signal was measured on a luminometer. […] Compounds were tested in dose-response format and the inhibition of kinase activity was calculated at each concentration of compound. To determine the IC50 (concentration of compound required to inhibit 50% of the enzyme activity) data were fit to a plot of % inhibition vs Log10 compound concentration using a sigmoidal fit with a variable slope and fixing the maximum to 100% and the minimum to 0%. To determine the Ki values the Cheng-Prusoff equation was utilized (Ki=IC50/(1+[S]/Km).

Rho kinase 1 (ROCK1) = Rho kinase 1 (ROCK1) (Homo sapiens, UniProt Q13464); experiment: In vitro inhibitory activity assay ROCK1 (ADP-Glo); type: biochemical; conditions: ATP 200 μM, Cheng-Prusoff from IC50; read-out: ROCK 1 (Ki, range of activity)
Description: as §1

[1] = test system: cch-evoked bronchoconstriction; experiment: Experimental bronchospasm (carbachol-induced bronchoconstriction, Konzett & Roessler); type: in vivo, Male CD Sprague Dawley rats; conditions: for inhibition in vivo at 0.003 mg/kg / inhibition in vivo at 0.01 mg/kg: iv, rat, 1 hour after administration, carbachol 80 μg/kg i.v., read-out: Inhibition % (±s.e. mean) of cch-evoked bronchoconstriction; for inhibition in vivo at 0.003 mg/kg: dose 3 μg/Kg intratracheal; for inhibition in vivo at 0.01 mg/kg: dose 10 μg/Kg intratracheal
Description: Male CD Sprague Dawley rats (220-250 g) were purchased from Charles River Laboratories Italy (Calco, Lecco). Prior to use animals were acclimated for at least 5 days 20 to the local vivarium conditions (room temperature: 20-24° C.; relative humidity: 40-70%), having free access to standard rat chow and softened tap water. All the procedures were performed in animal operating rooms according to ethical guidelines for the conduct of animal research (D. L.vo 116/92).
Rats were anaesthetized with a combination of anesthetics (Zoletil 20 mg/kg+Xylazine 5 mg/kg, ip) for the i.t. administration. A laryngoscope was moved forward into the mouth to visualize the trachea and guide the insertion of the tip of a custom-made small diameter cannula directly into the trachea and located 1-2 mm above the bifurcation.
In order to assess the residual inhibitory activity of test compounds 1 hour after their administration, rats were surgically prepared. Body temperature was kept constant at 37° C. by a heated blanket.
The trachea was cannulated and the lungs were ventilated artificially with a constant volume ventilator (rodent ventilator mod. 7025, Ugo Basile, Comerio, Varese, Italy) at a frequency of 80 strokes/min and at a tidal volume of 10 ml/kg. To avoid spontaneous breathing, the animals were injected intravenously (i.v.) with pancuronium bromide (2 mg/kg).
Bronchoconstriction was induced by the i.v. injection of carbachol (cch) 80 μg/kg. In control experiments, repeated injections of this dose produced reproducible short-lasting (1-2 min duration) bronchospasms. Bronchoconstriction, quantified as a reduction of tidal volume, was evaluated according to the method described by Konzett & Roessler (1). Systemic blood pressure and changes in airway resistance were monitored with a digital pressure transducer.
After stabilisation of artificial breathing and blood pressure, animals were injected (i.v.) with cch every 3 min, until 3 stable and reproducible basal responses were obtained. […] The effect of test compounds was 15 expressed as % inhibition of cch-evoked bronchoconstriction in time-matched, vehicle-treated, animals (controls).
Tested compounds were dissolved in dH2O and 1% Tween-80 or 0,001% HCl and further diluted to target concentrations. Tested compounds were instilled locally into the trachea in a volume of 125 μl.
All data are presented as mean±s.e.mean. The % inhibition of experimental bronchospasm was calculated comparing the drug-treated with the vehicle-treated control animals. Data analysis was performed using GraphPad Prism software.

Rho kinase 2 (ROCK2), sequence (O75116 whole entry): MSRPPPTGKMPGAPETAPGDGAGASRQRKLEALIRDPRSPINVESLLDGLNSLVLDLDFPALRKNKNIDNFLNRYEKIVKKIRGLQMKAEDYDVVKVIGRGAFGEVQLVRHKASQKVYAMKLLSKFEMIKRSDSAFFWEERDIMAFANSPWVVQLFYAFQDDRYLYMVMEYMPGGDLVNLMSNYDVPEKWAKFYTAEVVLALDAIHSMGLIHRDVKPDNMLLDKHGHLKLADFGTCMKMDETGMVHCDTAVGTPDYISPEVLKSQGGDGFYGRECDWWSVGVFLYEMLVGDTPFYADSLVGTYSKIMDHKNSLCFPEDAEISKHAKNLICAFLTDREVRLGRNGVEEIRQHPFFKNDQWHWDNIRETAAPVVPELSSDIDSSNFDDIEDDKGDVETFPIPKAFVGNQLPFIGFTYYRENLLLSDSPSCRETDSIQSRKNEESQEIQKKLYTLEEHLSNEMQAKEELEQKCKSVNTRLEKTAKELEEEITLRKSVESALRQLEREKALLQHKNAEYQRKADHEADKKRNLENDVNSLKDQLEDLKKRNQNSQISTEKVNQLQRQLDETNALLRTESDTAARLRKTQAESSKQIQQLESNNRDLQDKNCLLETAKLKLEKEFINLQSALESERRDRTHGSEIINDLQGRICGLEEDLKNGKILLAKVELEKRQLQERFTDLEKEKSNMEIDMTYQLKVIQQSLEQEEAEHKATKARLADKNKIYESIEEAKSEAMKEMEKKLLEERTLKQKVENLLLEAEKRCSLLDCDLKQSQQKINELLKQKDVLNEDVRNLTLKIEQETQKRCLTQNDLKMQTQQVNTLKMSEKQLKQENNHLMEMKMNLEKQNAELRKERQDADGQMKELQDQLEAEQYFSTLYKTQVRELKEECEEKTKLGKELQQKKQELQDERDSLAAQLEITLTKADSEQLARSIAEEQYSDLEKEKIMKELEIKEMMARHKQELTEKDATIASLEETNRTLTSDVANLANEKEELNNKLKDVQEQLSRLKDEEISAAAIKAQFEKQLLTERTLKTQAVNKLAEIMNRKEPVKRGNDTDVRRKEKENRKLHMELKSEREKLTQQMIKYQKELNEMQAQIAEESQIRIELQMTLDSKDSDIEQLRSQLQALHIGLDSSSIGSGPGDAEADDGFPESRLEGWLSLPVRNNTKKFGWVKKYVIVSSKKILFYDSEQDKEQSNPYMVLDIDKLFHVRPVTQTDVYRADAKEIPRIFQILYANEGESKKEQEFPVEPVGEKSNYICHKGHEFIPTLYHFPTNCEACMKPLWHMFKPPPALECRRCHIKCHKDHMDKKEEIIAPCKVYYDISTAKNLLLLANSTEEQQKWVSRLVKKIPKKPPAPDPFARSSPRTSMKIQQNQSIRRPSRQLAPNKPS
Rho kinase 1 (ROCK1), sequence (Q13464 whole entry): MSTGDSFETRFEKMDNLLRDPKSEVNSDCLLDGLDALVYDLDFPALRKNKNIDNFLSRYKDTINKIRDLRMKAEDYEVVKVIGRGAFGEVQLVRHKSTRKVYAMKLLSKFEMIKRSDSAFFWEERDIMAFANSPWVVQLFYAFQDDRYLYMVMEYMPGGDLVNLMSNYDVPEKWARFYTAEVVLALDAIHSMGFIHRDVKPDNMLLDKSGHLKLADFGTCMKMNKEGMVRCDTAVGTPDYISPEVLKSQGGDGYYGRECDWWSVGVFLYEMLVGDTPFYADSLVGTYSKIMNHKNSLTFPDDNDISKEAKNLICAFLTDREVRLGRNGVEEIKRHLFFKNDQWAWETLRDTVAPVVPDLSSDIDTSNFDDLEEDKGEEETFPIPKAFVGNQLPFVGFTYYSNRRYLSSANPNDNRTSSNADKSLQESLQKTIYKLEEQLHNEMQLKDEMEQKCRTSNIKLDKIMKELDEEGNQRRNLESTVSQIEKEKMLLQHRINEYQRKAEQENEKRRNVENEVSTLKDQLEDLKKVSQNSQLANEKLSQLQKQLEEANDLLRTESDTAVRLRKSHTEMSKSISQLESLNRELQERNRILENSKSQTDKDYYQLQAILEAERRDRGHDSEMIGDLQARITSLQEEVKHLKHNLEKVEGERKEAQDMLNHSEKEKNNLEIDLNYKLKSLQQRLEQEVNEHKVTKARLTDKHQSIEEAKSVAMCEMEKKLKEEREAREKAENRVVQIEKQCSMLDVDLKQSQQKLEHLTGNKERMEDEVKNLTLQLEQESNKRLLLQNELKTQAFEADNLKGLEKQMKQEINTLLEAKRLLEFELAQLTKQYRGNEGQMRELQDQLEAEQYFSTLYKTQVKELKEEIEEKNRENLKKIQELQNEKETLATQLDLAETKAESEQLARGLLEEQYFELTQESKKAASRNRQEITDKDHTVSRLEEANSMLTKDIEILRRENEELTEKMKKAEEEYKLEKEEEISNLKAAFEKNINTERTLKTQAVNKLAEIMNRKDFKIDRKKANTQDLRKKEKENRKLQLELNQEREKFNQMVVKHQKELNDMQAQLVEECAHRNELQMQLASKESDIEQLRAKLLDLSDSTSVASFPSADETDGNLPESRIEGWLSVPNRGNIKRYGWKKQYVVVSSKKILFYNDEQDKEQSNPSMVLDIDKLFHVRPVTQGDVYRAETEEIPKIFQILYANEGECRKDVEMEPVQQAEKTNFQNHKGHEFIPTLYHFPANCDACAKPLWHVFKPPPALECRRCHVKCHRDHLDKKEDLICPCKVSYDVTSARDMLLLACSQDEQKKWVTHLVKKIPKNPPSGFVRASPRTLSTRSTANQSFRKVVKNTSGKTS

Row | Ratio (PKA/ROCK2) (PKA) | Ki (Rho kinase 2 (ROCK2)) | Ki (Rho kinase 1 (ROCK1)) | Compound | inhibition in vivo at 0.003 mg/kg [1] | inhibition in vivo at 0.01 mg/kg [1] | activity as bronchodilator (in words) ([1]; rat bronchospasm test, internal comparator vs compounds with bulky moiety W)
1 | ** (5≤ratio<10) | ≤ 3 nM | ≤ 3 nM | CN1C[C@@H]2C[C@H]1CN2c1ccc(NC(=O)c2cccc(CNc3ncc(-c4ccnc(N)n4)c4c3CCO4)c2)nc1 [Example 76, 3-(((7-(2-aminopyrimidin-4-yl)-2,3-dihydrofuro[3,2-c]pyridin-4-yl)amino)methyl)-N-(5-((1S,4S)-5-methyl-2,5-diazabicyclo[2.2.1]heptan-2-yl)pyridin-2-yl)benzamide] | – | – | –
2 | *** (ratio≥10) | ≤ 3 nM | ≤ 3 nM | CN1CCN(C)C(COc2ccc(NC(=O)c3cccc(CNc4ncc(-c5ccnc(N)n5)c5c4CCO5)c3)nc2)C1 (single isomer, unassigned) [Example 83, 3-(((7-(2-aminopyrimidin-4-yl)-2,3-dihydrofuro[3,2-c]pyridin-4-yl)amino)methyl)-N-(5-((1,4-dimethylpiperazin-2-yl)methoxy)pyridin-2-yl)benzamide] | 53.3 ± 4.6% | – | –
3 | – | ≤ 3 nM | ≤ 3 nM | CN1CC[C@@H]1COc1ccc(NC(=O)c2cccc(CNc3ncc(-c4ccnc(N)n4)c4c3CCO4)c2)nc1 [Example 81, (R)-3-(((7-(2-aminopyrimidin-4-yl)-2,3-dihydrofuro[3,2-c]pyridin-4-yl)amino)methyl)-N-(5-((1-methylazetidin-2-yl)methoxy)pyridin-2-yl)benzamide] | – | 81.3 ± 7.9% | –
4 | ** (5≤ratio<10) | > 30 nM | > 30 nM | CNC(=O)c1cccc(CNc2ncc(-c3ccncn3)c3c2CCO3)c1 [Example A, N-Methyl-3-(((7-(pyrimidin-4-yl)-2,3-dihydrofuro[3,2-c]pyridin-4-yl)amino)methyl)benzamide, reference compound] | – | – | –
5 | * (ratio<5) | 3 to 30 nM | > 30 nM | Nc1nccc(-c2cnc(NCc3ccccc3)c3c2OCC3)n1 [Example C, 7-(2-Aminopyrimidin-4-yl)-N-benzyl-2,3-dihydrofuro[3,2-c]pyridin-4-amine, reference compound] | – | – | –
6 | *** (ratio≥10) | > 30 nM | > 30 nM | CNC(=O)c1cccc(CNc2ncc(-c3ccnc(N)n3)c3c2OCC3)c1 [Example B, 3-(((4-(2-aminopyrimidin-4-yl)-2,3-dihydrofuro[2,3-c]pyridin-7-yl)amino)methyl)-N-methylbenzamide, reference compound] | – | – | –

Continued, molecule first:

Row | Compound | Ratio (PKA/ROCK2) (PKA) | Ki (Rho kinase 2 (ROCK2)) | Ki (Rho kinase 1 (ROCK1)) | inhibition in vivo at 0.003 mg/kg [1] | inhibition in vivo at 0.01 mg/kg [1] | activity as bronchodilator (in words) ([1]; rat bronchospasm test, internal comparator vs compounds with bulky moiety W)
7 | Nc1nccc(-c2cnc(NCc3cccc(C(=O)Nc4ccc(OC5CCNCC5)cn4)c3)c3c2OCC3)n1 [Example 71, 3-(((7-(2-aminopyrimidin-4-yl)-2,3-dihydrofuro[3,2-c]pyridin-4-yl)amino)methyl)-N-(5-(piperidin-4-yloxy)pyridin-2-yl)benzamide] | *** (ratio≥10) | ≤ 3 nM | ≤ 3 nM | 47.9 ± 7.7% | – | –
8 | CN(C)CCN(C)c1ccc(NC(=O)c2cccc(CNc3ncc(-c4ccnc(N)n4)c4c3CCO4)c2)nc1 [Example 75, 3-(((7-(2-aminopyrimidin-4-yl)-2,3-dihydrofuro[3,2-c]pyridin-4-yl)amino)methyl)-N-(5-((2-(dimethylamino)ethyl)(methyl)amino)pyridin-2-yl)benzamide] | *** (ratio≥10) | ≤ 3 nM | ≤ 3 nM | – | – | –
9 | COc1ccc(NC(=O)c2cccc(CNc3ncc(-c4ccnc(N)n4)c4c3CCO4)c2)nc1 [Example 51, 3-(((7-(2-Aminopyrimidin-4-yl)-2,3-dihydrofuro[3,2-c]pyridin-4-yl)amino)methyl)-N-(5-methoxypyridin-2-yl)benzamide] | *** (ratio≥10) | ≤ 3 nM | ≤ 3 nM | – | 3.1 ± 14.8% | markedly lower activity as bronchodilator
10 | CN(C)CCOc1ccc(NC(=O)c2cccc(CNc3ncc(-c4ccnc(N)n4)c4c3CCO4)c2)nc1 [Example 52, 3-(((7-(2-aminopyrimidin-4-yl)-2,3-dihydrofuro[3,2-c]pyridin-4-yl)amino)methyl)-N-(5-(2-(dimethylamino)ethoxy)pyridin-2-yl)benzamide] | *** (ratio≥10) | ≤ 3 nM | ≤ 3 nM | – | 51.5 ± 6.2% | –
11 | Nc1nccc(-c2cnc(NCc3cccc(C(=O)Nc4ccc(N5C[C@H]6C[C@@H]5CN6)cn4)c3)c3c2OCC3)n1 [Example 68, N-(5-((1R,4R)-2,5-diazabicyclo[2.2.1]heptan-2-yl)pyridin-2-yl)-3-(((7-(2-aminopyrimidin-4-yl)-2,3-dihydrofuro[3,2-c]pyridin-4-yl)amino)methyl)benzamide] | *** (ratio≥10) | ≤ 3 nM | ≤ 3 nM | – | – | –
12 | C[C@@H]1CN[C@@H](C)CN1c1ccc(NC(=O)c2cccc(CNc3ncc(-c4ccnc(N)n4)c4c3CCO4)c2)nc1 [Example 67] | *** (ratio≥10) | ≤ 3 nM | ≤ 3 nM | – | – | –
13 | Nc1nccc(-c2cnc(NCc3cccc(C(=O)Nc4ccc(N5CCCNCC5)cn4)c3)c3c2OCC3)n1 [Example 72, N-(5-(1,4-diazepan-1-yl)pyridin-2-yl)-3-(((7-(2-aminopyrimidin-4-yl)-2,3-dihydrofuro[3,2-c]pyridin-4-yl)amino)methyl)benzamide] | *** (ratio≥10) | ≤ 3 nM | ≤ 3 nM | – | – | –
14 | CN1CCC(C(=O)N2CCN(c3ccc(NC(=O)c4cccc(CNc5ncc(-c6ccnc(N)n6)c6c5CCO6)c4)nc3)CC2)CC1 [Example 65, 3-(((7-(2-aminopyrimidin-4-yl)-2,3-dihydrofuro[3,2-c]pyridin-4-yl)amino)methyl)-N-(5-(4-(1-methylpiperidine-4-carbonyl)piperazin-1-yl)pyridin-2-yl)benzamide] | *** (ratio≥10) | ≤ 3 nM | ≤ 3 nM | – | – | –
